Source: patent publication US12084426B2, “Indazole carboxamides as kinase inhibitors” (BRISTOL-MYERS SQUIBB COMPANY, priority 2018, dated 2024)
Read-outs that look alike come from different tables or passages of the source.

Test system: MLKL phosphorylation in HT29-L23 human colorectal adenocarcinoma cells
Test: MLKL Phosphorylation High-Content Assay
Format: cell-based
Conditions: 6 h, necroptosis induced with TNFα, SMAC mimetic and Z-VAD, read-out: pMLKL (IC50)
Experimental: MLKL Phosphorylation High-Content Assay
HT29-L23 human colorectal adenocarcinoma cells were maintained in RPMI 1640 medium containing 10% heat-inactivated FBS, 1% Penicillin-Streptomycin and 10 mM HEPES. Cells were seeded at 2,000 cells/well in 384 well tissue culture-treated microplates (Greiner #781090-3B) and incubated at 37° C. (5% CO2/95% O2) for 2 d. On the day of the assay, the cells were treated with test compounds at final concentrations of 6.25 to 0.106 μM for 30 min at 37° C. (5% CO2/95% O2). Necroptosis was induced using a mixture of human TNFα (35 ng/mL) (Peprotech #300-01A), SMAC mimetic (from US 2015/0322111 A1) (700 nM) and Z-VAD (140 nM) (BD pharmingen #51-6936). Following 6 h incubation at 37° C. (5% CO2/95% O2), the cells were fixed with 4% formaldehyde (ACROS 11969-0010) for 15 min at rt, then permeabilized with phosphate buffered saline (PBS) containing 0.2% Triton-X-100 for 10 min. MLKL phosphorylation was detected using anti-MLKL (phospho S358) antibody (Abcam #ab187091) (1:1000 dilution in Blocking Buffer [PBS supplemented with 0.1% BSA]) with ON incubation at 4° C. After washing three times in PBS, goat anti-rabbit Alexa-488 (1:1000 dilution) (Life Technologies, A11008) and Hoechst 33342 (Life Technologies, H3570) (1:2000 dilution) in Blocking Buffer were added for 1 h at rt. Following another three cycles of washes in PBS, the microplates were sealed, and cellular images were acquired in the Cellomics ArrayScan VTI high-content imager equipped with an X1 camera. Fluorescent images were taken using a 10× objective and the 386-23 BGRFRN_BGRFRN and 485-20 BGRFRN_BGRFRN filter sets, for nuclei and MLKL phosphorylation, respectively. The image sets were analyzed using the Compartmental Analysis Bioapplication software (Cellomics). The level of MLKL phosphorylation was quantified as MEAN_CircRingAvgIntenRatio. The maximal inhibitory response was defined by the activity induced by Necls (CAS #: 852391-15-2, 6.25 μM). The IC50 value was defined as the concentration of compound that produces 50% of the maximal inhibition. The data were fitted using the 4-parameter logistic equation to calculate the IC50 and Ymax values.

| Structure (SMILES) | IC50 (Homo sapiens) [µM] | IC50 [µM] |
| --- | --- | --- |
| CNC(=O)c1n[nH]c2cc(N3CCCC(C(=O)NCc4ccccc4Oc4ccccc4)C3)ccc12 (racemic) [Example 8, N-methyl-6-(3-{ [(2-phenoxyphenyl)methyl]carbamoyl}piperidin-1-yl)-1H-indazole-3-carboxamide] | 0.11 |  |
| CNC(=O)c1n[nH]c2cc(N3CCCC(C(=O)NCCCOC4CCCCC4)C3)ccc12 (racemic) [Example 9, 6-(3-{[3-(cyclohexyloxy)propyl]carbamoyl}piperidin-1-yl)-N-methyl-1H-indazole-3-carboxamide] | 3.5 |  |
| CNC(=O)c1n[nH]c2cc(N3CCCC(C(=O)NCc4ccccc4OCC4CC4)C3)ccc12 (racemic) [Example 12, 6-[3-({[2-(cyclopropylmethoxy)phenyl]methyl}carbamoyl)piperidin-1-yl]-N-methyl-1H-indazole-3-carboxamide] | 0.29 |  |
| CNC(=O)c1n[nH]c2cc(N3CCCC(C(=O)NC4CCCC(c5ccccc5)C4)C3)ccc12 (racemic) [Example 16, N-methyl-6-{3-[(3-phenylcyclohexyl)carbamoyl]piperidin-1-yl}-1H-indazole-3-carboxamide] |  | 3.1 |
| CNC(=O)c1n[nH]c2cc(N3CCOC(C(=O)Nc4cnn(Cc5ccccc5)c4)C3)ccc12 (racemic) [Example 21, 6-{2-[(1-benzyl-1H-pyrazol-4-yl)carbamoyl]morpholin-4-yl}-N-methyl-1H-indazole-3-carboxamide] | 1.2 |  |
| CNC(=O)c1n[nH]c2cc(N3CCCC(C(=O)NCC(O)COc4ccccc4)C3)ccc12 (single isomer, unassigned) [Example 6, 6-{3-[(2-hydroxy-3-phenoxypropyl)carbamoyl]piperidin-1-yl}-N-methyl-1H-indazole-3-carboxamide] | 4.3 |  |
| CNC(=O)c1n[nH]c2cc(N3CCCC(C(=O)NCC(O)COc4ccccc4)C3)ccc12 (single isomer, unassigned) [Example 7, 6-{3-[(2-hydroxy-3-phenoxypropyl)carbamoyl]piperidin-1-yl}-N-methyl-1H-indazole-3-carboxamide] |  | 2.2 |
| CNC(=O)c1n[nH]c2cc(N3CCCC(C(=O)NC4CCCC(c5ccccc5)C4)C3)ccc12 (single isomer, unassigned) [Example 15, N-methyl-6-{3-[(3-phenylcyclohexyl)carbamoyl]piperidin-1-yl}-1H-indazole-3-carboxamide] | 1.9 |  |
| CNC(=O)c1n[nH]c2cc(N3CCCC(C(=O)NCc4ccccc4OC(F)(F)F)C3)ccc12 (centres unmarked) [Example 1, N-methyl-6-[3-({[2-(trifluoromethoxy)phenyl]methyl}carbamoyl)piperidin-1-yl]-1H-indazole-3-carboxamide] | 0.66 |  |
| CNC(=O)c1n[nH]c2cc(N3CCN(C)C(C(=O)NCc4ccccc4OC)C3)ccc12 (centres unmarked) [Example 2, 6-(3-{[(2-methoxyphenyl)methyl]carbamoyl}-4-methylpiperazin-1-yl)-N-methyl-1H-indazole-3-carboxamide] | > 6.2 |  |
| CNC(=O)c1n[nH]c2cc(N3CCOC(C(=O)NCCC(O)c4ccc(F)c(F)c4)C3)ccc12 (centres unmarked) [Example 3, 6-(2-{[3-(3,4-difluorophenyl)-3-hydroxypropyl]carbamoyl}morpholin-4-yl)-N-methyl-1H-indazole-3-carboxamide] | 4.3 |  |
| CNC(=O)c1n[nH]c2cc(N3CCNC(C(=O)NCCC(C)c4ccccc4)C3)ccc12 (centres unmarked) [Example 4, N-methyl-6-{3-[(3-phenylbutyl)carbamoyl]piperazin-1-yl}-1H-indazole-3-carboxamide] | 3.2 |  |
| CNC(=O)c1n[nH]c2cc(C3CCCN(C(=O)NCCC(C)c4ccccc4)C3)ccc12 (centres unmarked) [Example 5, N-methyl-6-{1-[(3-phenylbutyl)carbamoyl]piperidin-3-yl}-1H-indazole-3-carboxamide] | 0.19 |  |
| CNC(=O)c1n[nH]c2cc(N3CCCC(C(=O)NCCC(O)c4ccccc4)C3)ccc12 (centres unmarked) [Example 10, 6-{3-[(3-hydroxy-3-phenylpropyl)carbamoyl]piperidin-1-yl}-N-methyl-1H-indazole-3-carboxamide] | 3.6 |  |
| CNC(=O)c1n[nH]c2cc(N3CCCC(C(=O)Nc4cnn(Cc5ccccc5)c4)C3)ccc12 (centres unmarked) [Example 11, 6-{3-[(1-benzyl-1H-pyrazol-4-yl)carbamoyl]piperidin-1-yl}-N-methyl-1H-indazole-3-carboxamide] |  | 2.5 |
| CNC(=O)c1n[nH]c2cc(N3CCCC(C(=O)NCCCOc4ccc(F)cc4)C3)ccc12 (centres unmarked) [Example 13, 6-(3-{[3-(4-fluorophenoxy)propyl]carbamoyl}piperidin-1-yl)-N-methyl-1H-indazole-3-carboxamide] |  | 3.2 |
| CNC(=O)c1n[nH]c2cc(N3CCCC(C(=O)NCCC(O)c4ccc(F)c(F)c4)C3)ccc12 (centres unmarked) [Example 14, 6-(3-{[3-(3,4-difluorophenyl)-3-hydroxypropyl]carbamoyl}piperidin-1-yl)-N-methyl-1H-indazole-3-carboxamide] | 2.4 |  |
| CNC(=O)c1n[nH]c2cc(N3CCCC(C(=O)NCCC(C)c4ccccc4)C3)ccc12 (centres unmarked) [Example 17, N-methyl-6-{3-[(3-phenylbutyl)carbamoyl]piperidin-1-yl}-1H-indazole-3-carboxamide] | 0.2 |  |
| CNC(=O)c1n[nH]c2cc(N3CCN(C)C(C(=O)NCCC(O)c4ccccc4)C3)ccc12 (centres unmarked) [Example 18, 6 6-{3-[(3-hydroxy-3-phenylpropyl)carbamoyl]-4-methylpiperazin-1-yl}-N-methyl-1H-indazole-3-carboxamide] | 2.4 |  |
| CNC(=O)c1n[nH]c2cc(N3CCN(C)C(C(=O)NCCC(C)c4ccc(F)cc4)C3)ccc12 (centres unmarked) [Example 19, 6-(3-{[3-(4-fluorophenyl)butyl]carbamoyl}-4-methylpiperazin-1-yl)-N-methyl-1H-indazole-3-carboxamide] | 0.69 |  |
| CNC(=O)c1n[nH]c2cc(N3CCN(C)C(C(=O)NCCC(C)c4ccccc4)C3)ccc12 (centres unmarked) [Example 20, N-methyl-6-{4-methyl-3-[(3-phenylbutyl)carbamoyl]piperazin-1-yl}-1H-indazole-3-carboxamide] | 2.3 |  |
| CNC(=O)c1n[nH]c2cc(N3CCOC(C(=O)NCCC(C)c4ccccc4)C3)ccc12 (centres unmarked) [Example 22, N-methyl-6-{2-[(3-phenylbutyl)carbamoyl]morpholin-4-yl}-1H-indazole-3-carboxamide] | 0.44 |  |
| CNC(=O)c1n[nH]c2cc(N3CCOC(C(=O)NCC4CC4c4cccc(F)c4)C3)ccc12 (centres unmarked) [Example 23] | 1.6 |  |
| CNC(=O)c1n[nH]c2cc(N3CCOC(C(=O)NCCC(C)c4ccc(F)cc4)C3)ccc12 (centres unmarked) [Example 24, 6-(2-{[3-(4-fluorophenyl)butyl]carbamoyl}morpholin-4-yl)-N-methyl-1H-indazole-3-carboxamide] | 0.11 |  |
| CNC(=O)c1n[nH]c2cc(N3CCOC(C(=O)NCCC(O)c4ccc(Cl)cc4)C3)ccc12 (centres unmarked) [Example 25, 6-(2-{[3-(4-chlorophenyl)-3-hydroxypropyl]carbamoyl}morpholin-4-yl)-N-methyl-1H-indazole-3-carboxamide] | 4.5 |  |
| CNC(=O)c1n[nH]c2cc(N3CCOC(C(=O)NC4CCCC(c5ccccc5)C4)C3)ccc12 (centres unmarked) [Example 26, N-methyl-6-{2-[(3-phenylcyclohexyl)carbamoyl]morpholin-4-yl}-1H-indazole-3-carboxamide] | 2.5 |  |
